From the NIST ThermoML archive (doi:10.1021/je034142v)
Where “and” joins values, the source holds several entries; their conditions need not be identical. Equal values may be shown once.

Settings: Liquid; for mass density: vibrating tube

C1CCCC1 [cyclopentane]
Settings | mass density [kg/m3] | viscosity
257.86 K, 100 kPa | – | 0.6878 mPa·s
257.87 K, 100 kPa | – | 0.6871 mPa·s
258.01 K, 100 kPa | – | 0.6851 mPa·s
262.93 K, 100 kPa | – | 0.6393 mPa·s and 0.6392 mPa·s
262.93 K, 3100 kPa | – | 0.6574 mPa·s
262.93 K, 5600 kPa | – | 0.6719 mPa·s
262.93 K, 7900 kPa | – | 0.6858 mPa·s
262.93 K, 10100 kPa | – | 0.6987 mPa·s
262.93 K, 25800 kPa | – | 0.795 mPa·s
262.93 K, 50800 kPa | – | 0.9583 mPa·s
262.93 K, 75700 kPa | – | 1.137 mPa·s
262.93 K, 100700 kPa | – | 1.333 mPa·s
262.93 K, 125800 kPa | – | 1.546 mPa·s
262.93 K, 150800 kPa | – | 1.782 mPa·s
262.93 K, 175800 kPa | – | 2.04 mPa·s
262.93 K, 200800 kPa | – | 2.322 mPa·s
262.93 K, 225900 kPa | – | 2.629 mPa·s
262.93 K, 250900 kPa | – | 2.967 mPa·s
262.93 K, 275800 kPa | – | 3.333 mPa·s
262.93 K, 300600 kPa | – | 3.725 mPa·s
262.99 K, 100 kPa | – | 0.6384 mPa·s and 0.6388 mPa·s
262.99 K, 3100 kPa | – | 0.6562 mPa·s
262.99 K, 5600 kPa | – | 0.6709 mPa·s
262.99 K, 8100 kPa | – | 0.6858 mPa·s
262.99 K, 10800 kPa | – | 0.7025 mPa·s
262.99 K, 25800 kPa | – | 0.7943 mPa·s
262.99 K, 50800 kPa | – | 0.9576 mPa·s
262.99 K, 75700 kPa | – | 1.136 mPa·s
262.99 K, 100500 kPa | – | 1.33 mPa·s
262.99 K, 125500 kPa | – | 1.543 mPa·s
262.99 K, 150500 kPa | – | 1.778 mPa·s
262.99 K, 175500 kPa | – | 2.032 mPa·s
262.99 K, 200200 kPa | – | 2.307 mPa·s
263.03 K, 100 kPa | – | 0.6386 mPa·s and 0.639 mPa·s
263.03 K, 10600 kPa | – | 0.7005 mPa·s
263.03 K, 20600 kPa | – | 0.7608 mPa·s
263.03 K, 30600 kPa | – | 0.8231 mPa·s
263.03 K, 40500 kPa | – | 0.8873 mPa·s
263.03 K, 50500 kPa | – | 0.9555 mPa·s
263.03 K, 60500 kPa | – | 1.024 mPa·s
263.03 K, 70500 kPa | – | 1.095 mPa·s
263.03 K, 80600 kPa | – | 1.171 mPa·s
263.03 K, 90400 kPa | – | 1.246 mPa·s
263.03 K, 100400 kPa | – | 1.327 mPa·s
263.03 K, 110500 kPa | – | 1.41 mPa·s
263.03 K, 120500 kPa | – | 1.496 mPa·s
263.03 K, 130500 kPa | – | 1.585 mPa·s
263.03 K, 140400 kPa | – | 1.677 mPa·s
263.03 K, 150400 kPa | – | 1.774 mPa·s
263.03 K, 160500 kPa | – | 1.874 mPa·s
263.03 K, 170500 kPa | – | 1.977 mPa·s
263.03 K, 180400 kPa | – | 2.083 mPa·s
263.03 K, 190300 kPa | – | 2.193 mPa·s
263.03 K, 200200 kPa | – | 2.27 mPa·s
268.01 K, 100 kPa | – | 0.6016 mPa·s and 0.5994 mPa·s
268.01 K, 3000 kPa | – | 0.6145 mPa·s
268.01 K, 5500 kPa | – | 0.6285 mPa·s
268.01 K, 8100 kPa | – | 0.6428 mPa·s
268.01 K, 10600 kPa | – | 0.6569 mPa·s
268.01 K, 25900 kPa | – | 0.745 mPa·s
268.01 K, 50900 kPa | – | 0.8969 mPa·s
268.01 K, 75900 kPa | – | 1.065 mPa·s
268.01 K, 100700 kPa | – | 1.243 mPa·s
268.01 K, 125700 kPa | – | 1.44 mPa·s
268.01 K, 150600 kPa | – | 1.657 mPa·s
268.01 K, 175700 kPa | – | 1.896 mPa·s
268.01 K, 200700 kPa | – | 2.151 mPa·s
268.01 K, 225600 kPa | – | 2.432 mPa·s
268.01 K, 250800 kPa | – | 2.742 mPa·s
268.01 K, 275300 kPa | – | 3.073 mPa·s
268.01 K, 301000 kPa | – | 3.447 mPa·s
268.01 K, 325300 kPa | – | 3.833 mPa·s
268.01 K, 351200 kPa | – | 4.283 mPa·s
268.01 K, 378000 kPa | – | 4.766 mPa·s
273.15 K, 100 kPa | – | 0.5601 mPa·s and 0.561 mPa·s
273.15 K, 3100 kPa | – | 0.5756 mPa·s
273.15 K, 5600 kPa | – | 0.5886 mPa·s
273.15 K, 8100 kPa | – | 0.6022 mPa·s
273.15 K, 10600 kPa | – | 0.6155 mPa·s
273.15 K, 25900 kPa | – | 0.6979 mPa·s
273.15 K, 50800 kPa | – | 0.8418 mPa·s
273.15 K, 75800 kPa | – | 0.9972 mPa·s
273.15 K, 100700 kPa | – | 1.166 mPa·s
273.15 K, 125500 kPa | – | 1.349 mPa·s
273.15 K, 150500 kPa | – | 1.55 mPa·s
273.15 K, 175500 kPa | – | 1.769 mPa·s
273.15 K, 200500 kPa | – | 2.006 mPa·s
273.15 K, 225300 kPa | – | 2.266 mPa·s
273.15 K, 250600 kPa | – | 2.552 mPa·s
273.15 K, 275800 kPa | – | 2.864 mPa·s
273.15 K, 300700 kPa | – | 3.198 mPa·s
273.15 K, 325900 kPa | – | 3.56 mPa·s
273.15 K, 350700 kPa | – | 3.947 mPa·s
273.15 K, 379200 kPa | – | 4.44 mPa·s
278.15 K, 101.33 kPa | 759.64 | –
278.16 K, 100 kPa | – | 0.5288 mPa·s and 0.529 mPa·s
278.16 K, 2900 kPa | – | 0.543 mPa·s
278.16 K, 5000 kPa | – | 0.5539 mPa·s
278.16 K, 8100 kPa | – | 0.5697 mPa·s
278.16 K, 10800 kPa | – | 0.5838 mPa·s
278.16 K, 25900 kPa | – | 0.6618 mPa·s
278.16 K, 50800 kPa | – | 0.7981 mPa·s
278.16 K, 75800 kPa | – | 0.9456 mPa·s
278.16 K, 100600 kPa | – | 1.105 mPa·s
278.16 K, 125700 kPa | – | 1.28 mPa·s
278.16 K, 150700 kPa | – | 1.469 mPa·s
278.16 K, 175800 kPa | – | 1.675 mPa·s
278.16 K, 200700 kPa | – | 1.895 mPa·s
278.16 K, 225800 kPa | – | 2.137 mPa·s
278.16 K, 250800 kPa | – | 2.395 mPa·s
278.16 K, 275900 kPa | – | 2.679 mPa·s
278.16 K, 300800 kPa | – | 2.992 mPa·s
278.16 K, 325900 kPa | – | 3.323 mPa·s
278.16 K, 350900 kPa | – | 3.683 mPa·s
278.16 K, 380100 kPa | – | 4.144 mPa·s
283.15 K, 101.33 kPa | 754.76 | –
287.93 K, 100 kPa | – | 0.471 mPa·s and 0.4712 mPa·s
287.93 K, 3000 kPa | – | 0.4845 mPa·s
287.93 K, 5400 kPa | – | 0.4955 mPa·s
287.93 K, 8100 kPa | – | 0.5084 mPa·s
287.93 K, 10800 kPa | – | 0.5216 mPa·s
287.93 K, 25900 kPa | – | 0.5923 mPa·s
287.93 K, 50900 kPa | – | 0.7153 mPa·s
287.93 K, 75800 kPa | – | 0.8468 mPa·s
287.93 K, 100800 kPa | – | 0.9885 mPa·s
287.93 K, 125700 kPa | – | 1.143 mPa·s
287.93 K, 150600 kPa | – | 1.308 mPa·s
287.93 K, 175700 kPa | – | 1.488 mPa·s
287.93 K, 200600 kPa | – | 1.681 mPa·s
287.93 K, 225700 kPa | – | 1.893 mPa·s
287.93 K, 250700 kPa | – | 2.121 mPa·s
287.93 K, 275700 kPa | – | 2.361 mPa·s
287.93 K, 300800 kPa | – | 2.623 mPa·s
287.93 K, 325500 kPa | – | 2.901 mPa·s
287.93 K, 349500 kPa | – | 3.196 mPa·s
287.93 K, 376900 kPa | – | 3.563 mPa·s
288.15 K, 101.33 kPa | 749.85 | –
293.15 K, 101.33 kPa | 744.9 | –
298 K, 100 kPa | – | 0.4191 mPa·s and 0.4196 mPa·s
298 K, 3000 kPa | – | 0.4308 mPa·s
298 K, 5300 kPa | – | 0.4404 mPa·s
298 K, 8100 kPa | – | 0.4526 mPa·s
298 K, 10900 kPa | – | 0.4644 mPa·s
298 K, 26000 kPa | – | 0.5288 mPa·s
298 K, 50800 kPa | – | 0.639 mPa·s
298 K, 75800 kPa | – | 0.7572 mPa·s
298 K, 100800 kPa | – | 0.8842 mPa·s
298 K, 125800 kPa | – | 1.021 mPa·s
298 K, 150700 kPa | – | 1.167 mPa·s
298 K, 175700 kPa | – | 1.324 mPa·s
298 K, 200700 kPa | – | 1.495 mPa·s
298 K, 225700 kPa | – | 1.678 mPa·s
298 K, 250700 kPa | – | 1.874 mPa·s
298 K, 275700 kPa | – | 2.085 mPa·s
298 K, 300600 kPa | – | 2.311 mPa·s
298 K, 324900 kPa | – | 2.542 mPa·s
298 K, 349600 kPa | – | 2.793 mPa·s
298 K, 375700 kPa | – | 3.084 mPa·s
298.03 K, 100 kPa | – | 0.419 mPa·s
298.03 K, 5500 kPa | – | 0.441 mPa·s
298.03 K, 7800 kPa | – | 0.4505 mPa·s
298.03 K, 10800 kPa | – | 0.4637 mPa·s
298.03 K, 25900 kPa | – | 0.5276 mPa·s
298.03 K, 50900 kPa | – | 0.6379 mPa·s
298.03 K, 75800 kPa | – | 0.7549 mPa·s
298.03 K, 100800 kPa | – | 0.8807 mPa·s
298.03 K, 125800 kPa | – | 1.016 mPa·s
298.03 K, 150700 kPa | – | 1.163 mPa·s
298.03 K, 175700 kPa | – | 1.322 mPa·s
298.03 K, 200700 kPa | – | 1.491 mPa·s
298.03 K, 225600 kPa | – | 1.673 mPa·s
298.03 K, 250600 kPa | – | 1.871 mPa·s
298.03 K, 275600 kPa | – | 2.081 mPa·s
298.03 K, 300400 kPa | – | 2.305 mPa·s
298.03 K, 325300 kPa | – | 2.545 mPa·s
298.03 K, 350100 kPa | – | 2.8 mPa·s
298.03 K, 378000 kPa | – | 3.112 mPa·s
298.15 K, 101.33 kPa | 739.92 | –

101.33 kPa, Capillary tube (Ostwald / Ubbelohde) method
Settings | viscosity [mPa·s]
278.15 K | 0.523
283.15 K | 0.4932
288.15 K | 0.4657
293.15 K | 0.4405
298.15 K | 0.4173
